Results from EPA's ToxValDB 9.5.

How the values were obtained:
Leuciscus idus = conditions: acute; duration: 96 hours; mortality
Canidae = conditions: chronic, oral, Dog Other
Bibionidae = conditions: chronic/long-term
Daphnia magna = conditions: chronic/long-term; duration: 21 days; reproduction
Oncorhynchus mykiss = conditions: chronic/long-term
Typhlodromus pyri = test: LR50; higher = less toxic; conditions: not reported; mortality
[1] = test system: Vigna radiata var. radiata; conditions: not reported; other
Sus scrofa = conditions: subchronic; duration: 60 days; oral; diet; Not specified; histopathology: nonneoplastic
Anas platyrhynchos = conditions: reproductive
Gallus gallus = conditions: reproduction developmental; duration: 50 days; F; reproduction
Bovidae = conditions: subchronic; duration: 90 days; neurology
Ovis sp. = conditions: subchronic; duration: 59 days; oral; diet; neurology
Felidae = conditions: chronic; duration: 420 days; oral; diet; M/F; Cat; neurology
Neovison vison = conditions: chronic; duration: 93 days; oral; diet; neurology
Macaca mulatta = conditions: chronic; duration: 183 days; oral; capsule; M/F; clinical chemistry
Lepomis macrochirus = conditions: acute; duration: 96 hours; mortality
Apis mellifera = conditions: acute; duration: 48 hours; oral; unspecified; mortality
Pimephales promelas = conditions: chronic/long-term; duration: 255 days; growth
Danio rerio = conditions: short-term; duration: 168 hours; growth
Oryctolagus sp. = conditions: chronic

## CN(C)C.Cl [Trimethylamine hydrochloride]
Leuciscus idus
  LC50: > 500 µg/mL
Rattus norvegicus; subchronic, duration: 90 days
  NOAEL: 144 mg/kg-day

## Nc1c(Cl)cc([N+](=O)[O-])cc1Cl [1-Amino-2,6-dichloro-4-nitrobenzene]
Canidae; duration: 1 years, hematological
  NOAEL: 2.5 mg/kg-day
Bibionidae
  NOEC: 0.6 mg/L
Colinus virginianus; reproduction developmental
  NOEC: 35.2 mg/kg-day
Daphnia magna
  NOEC: 0.032 mg/L
Rattus norvegicus; reproduction developmental, body weight
  NOEL: 19 mg/kg-day
Oncorhynchus mykiss; duration: 28 days, growth
  NOEC: 0.05 mg/L
Tagia sp.; chronic/long-term, duration: 56 days
  NOEC: 77.8 mg/kg
Typhlodromus pyri
  LR50: 374 g/ha

## Cc1cc(C)[nH]c(=O)n1 [4,6-Dimethylpyrimidin-2-ol]
[1]
  NOEC: 2.63 mg/kg
Tagia sp.; acute, duration: 14 days, no effects
  LC50: > 1000 mg/kg

## [CH3][Hg+] [Methyl mercury(II) cation]
Canidae; duration: 385 days, neurology
  LOAEL: 0.12 mg/kg-day
Sus scrofa
  NOAEL: 0.19 mg/kg-day
Anas platyrhynchos; development
  LOAEL: 5 mg/kg
Gallus gallus
  NOAEL: 0.75 mg/kg-day
Bovidae
  NOAEL: 0.1 mg/kg-day
Ovis sp.
  LOAEL: 0.225 mg/kg-day
Felidae
  NOAEL: 0.02 mg/kg-day
Oncorhynchus mykiss; duration: 112 days, oral, feed, hematological
  NOAEL: 0.17 mg/kg-day
Neovison vison
  LOAEL: 0.18 mg/kg-day

## O=S(=O)(O)C(F)(F)C(F)(F)C(F)(F)C(F)(F)C(F)(F)C(F)(F)C(F)(F)C(F)(F)F [Perfluorooctanesulfonic acid]
Macaca mulatta
  NOAEL: 0.03 mg/kg-day

## CC(COc1ccc(Oc2ccccc2)cc1)Oc1ccccn1 (stereo not given) [Pyriproxyfen]
Lepomis macrochirus
  LC50: > 0.27 µg/mL
Bibionidae; duration: 28 days, other
  NOEC: 0.01 mg/L
Apis mellifera
  LD50: 74 µg/piece
Daphnia magna
  NOEC: 1.5e-05 mg/L
Oncorhynchus mykiss; duration: 95 days
  NOEC: 0.0043 mg/L

## O=C(O)CNCP(=O)(O)O [Glyphosate]
Pimephales promelas
  NOEC: 25.7 mg/L
Anas platyrhynchos
  NOEL: 125 mg/kg-day
Colinus virginianus; acute, oral, mortality
  LD50: 4330 mg/kg-day
Colinus virginianus; reproduction developmental
  NOEL: 96.3 mg/kg-day
Daphnia magna
  NOEC: 12.5 mg/L
Danio rerio
  NOEC: 1 mg/L
Rattus norvegicus; acute, oral, mortality
  LD50: > 2000 mg/kg-day
Oryctolagus sp.
  NOAEL: 50 mg/kg-day
